ChEMBL document CHEMBL6083249, “The journey of p38 MAP kinase inhibitors: From bench to bedside in treating inflammatory diseases” (Eur J Med Chem, 2024)
Values belong to the compound of their own block, whether it stands above or below them.

Assays:
[1] = Half life in Sprague-Dawley rat at 30 mg/kg, po by LC-MS/MS analysis; type: ADME, organism-based; conditions: in vivo
[2] = Half life in Sprague-Dawley rat at 20 mg/kg, po by LC-MS/MS analysis; type: ADME, organism-based; conditions: in vivo
[3] = Half life in Sprague-Dawley rat at 50 mg/kg, po by LC-MS/MS analysis; type: ADME, organism-based; conditions: in vivo
[4] = AUC (0 to t) in Sprague-Dawley rat at 10 mg/kg, po by LC-MS analysis; type: ADME, organism-based; conditions: in vivo
[5] = AUC (0 to t) in Sprague-Dawley rat at 30 mg/kg, po by LC-MS analysis; type: ADME, organism-based; conditions: in vivo
[6] = AUC (0 to t) in Beagle dog at 40 mg/kg, po by LC-MS/MS analysis; type: ADME, organism-based, Canis lupus familiaris; conditions: in vivo
[7] = Tmax in Sprague-Dawley rat at 20 mg/kg, po by LC-MS analysis; type: ADME, organism-based; conditions: in vivo
[8] = Plasma protein binding in Sprague-Dawley rat assessed as unbound fraction at 10 uM incubated for 6 hrs by LC-MS/MS analysis; type: ADME, cell-free
[9] = Plasma protein binding in human assessed as unbound fraction at 30 uM incubated for 6 hrs by LC-MS/MS analysis; type: ADME, cell-free
[10] = AUC (0 to infinity) in Sprague-Dawley rat at 20 mg/kg, po measured for 24 hrs by LC-MS/MS analysis; type: ADME, organism-based; conditions: in vivo
[11] = Cmax in Sprague-Dawley rat at 10 mg/kg, po by LC-MS analysis; type: ADME, organism-based; conditions: in vivo
[12] = Tmax in Sprague-Dawley rat at 50 mg/kg, po by LC-MS analysis; type: ADME, organism-based; conditions: in vivo
[13] = Plasma protein binding in Sprague-Dawley rat assessed as unbound fraction at 30 uM incubated for 6 hrs by LC-MS/MS analysis; type: ADME, cell-free
[14] = Plasma protein binding in human assessed as unbound fraction at 1 uM incubated for 6 hrs by LC-MS/MS analysis; type: ADME, cell-free
[15] = target: Mitogen-activated protein kinase 14 (Homo sapiens) (UniProt Q16539); assay: Inhibition of p38alpha (unknown origin) at 10 uM in presence of ATP relative to control
[16] = AUC (0 to infinity) in Sprague-Dawley rat at 20 mg/kg, po by LC-MS/MS analysis; type: ADME, organism-based; conditions: in vivo
[17] = Tmax in Sprague-Dawley rat at 30 mg/kg, po by LC-MS analysis; type: ADME, organism-based; conditions: in vivo
[18] = AUC (0 to infinity) in Sprague-Dawley rat at 30 mg/kg, po by LC-MS/MS analysis; type: ADME, organism-based; conditions: in vivo
[19] = target: Cyclin-dependent kinase 18 (Homo sapiens) (UniProt Q07002); assay: Inhibition of CDK18 (unknown origin) at 10 uM relative to control
Homo sapiens [20] = species: Homo sapiens; assay: Inhibition of MKK6 (unknown origin) at 10 uM relative to control
[21] = Plasma protein binding in cynomolgus monkey assessed as unbound fraction at 10 uM incubated for 6 hrs by LC-MS/MS analysis; type: ADME, cell-free, Macaca fascicularis
[22] = AUC (0 to t) in Sprague-Dawley rat at 50 mg/kg, po by LC-MS analysis; type: ADME, organism-based; conditions: in vivo
[23] = target: 3',5'-cyclic-AMP phosphodiesterase 4B (Homo sapiens, UniProt Q07343); assay: Inhibition of PDE4B1 (unknown origin)
[24] = Half life in Sprague-Dawley rat at 10 mg/kg, po by LC-MS/MS analysis; type: ADME, organism-based; conditions: in vivo
[25] = Cmax in Sprague-Dawley rat at 50 mg/kg, po by LC-MS analysis; type: ADME, organism-based; conditions: in vivo
[26] = Cmax in Sprague-Dawley rat at 20 mg/kg, po measured for 24 hrs by LC-MS/MS analysis; type: ADME, organism-based; conditions: in vivo
[27] = Plasma protein binding in human assessed as unbound fraction at 10 uM incubated for 6 hrs by LC-MS/MS analysis; type: ADME, cell-free
[28] = AUC (0 to infinity) in Sprague-Dawley rat at 10 mg/kg, po by LC-MS/MS analysis; type: ADME, organism-based; conditions: in vivo
[29] = AUC (0 to t) in Sprague-Dawley rat at 20 mg/kg, po by LC-MS analysis; type: ADME, organism-based; conditions: in vivo
[30] = Tmax in Sprague-Dawley rat at 10 mg/kg, po by LC-MS analysis; type: ADME, organism-based; conditions: in vivo
[31] = target: 3',5'-cyclic-AMP phosphodiesterase 4C (Homo sapiens, UniProt Q08493); assay: Inhibition of PDE4C (unknown origin)
[32] = target: CDK7/Cyclin H/MNAT1 (Homo sapiens) (UniProt P51946+P50613+P51948); assay: Inhibition of CDK7/cyclinH/MAT1 (unknown origin) at 10 uM in presence of ATP relative to control; type: protein-complex assay
[33] = Plasma protein binding in cynomolgus monkey assessed as unbound fraction at 1 uM incubated for 6 hrs by LC-MS/MS analysis; type: ADME, cell-free, Macaca fascicularis
[34] = target: Casein kinase I isoform alpha (Homo sapiens) (UniProt P48729); assay: Inhibition of CK1 alpha (unknown origin) at 10 uM relative ton control
[35] = Plasma protein binding in cynomolgus monkey assessed as unbound fraction at 30 uM incubated for 6 hrs by LC-MS/MS analysis; type: ADME, cell-free, Macaca fascicularis
[36] = Plasma protein binding in Sprague-Dawley rat assessed as unbound fraction at 1 uM incubated for 6 hrs by LC-MS/MS analysis; type: ADME, cell-free
[37] = AUC (0 to infinity) in Sprague-Dawley rat at 50 mg/kg, po by LC-MS/MS analysis; type: ADME, organism-based; conditions: in vivo
Homo sapiens [38] = species: Homo sapiens; assay: Inhibition of P70S6K (unknown origin) in presence of 10 uM ATP by Z'-LYTE biochemical assay relative to control
[39] = target: Protein kinase C beta type (Homo sapiens, UniProt P05771); assay: Inhibition of PKCbeta2 (unknown origin)
[40] = target: Protein kinase C alpha type (Homo sapiens, UniProt P17252); assay: Inhibition of PKCalpha (unknown origin)
[41] = Clearance in dog; type: ADME, Canis lupus familiaris; conditions: in vivo
[42] = Clearance in rat; type: ADME; conditions: in vivo
[43] = Half life in Beagle dog at 5 mg/kg, po by LC-MS/MS analysis; type: ADME, organism-based, Canis lupus familiaris; conditions: in vivo
[44] = target: Mitogen-activated protein kinase 3 (Homo sapiens, UniProt P27361); assay: Inhibition of ERK1 (unknown origin)
[45] = Oral bioavailability in rat at 2 mg/kg by LC-MS/MS analysis; type: ADME, organism-based; conditions: in vivo
[46] = target: Mitogen-activated protein kinase kinase kinase 7 (Homo sapiens, UniProt O43318); assay: Inhibition of TAK1 (unknown origin)
[47] = target: cGMP-inhibited 3',5'-cyclic phosphodiesterase 3A (Homo sapiens) (UniProt Q14432); assay: Inhibition of PDE3A (unknown origin) at 10 uM relative to control
[48] = target: cGMP-specific 3',5'-cyclic phosphodiesterase (Homo sapiens) (UniProt O76074); assay: Inhibition of human PDE5 at 10 uM relative to control

Chain of 3',5'-cyclic-AMP phosphodiesterase 4C (Q08493 whole entry): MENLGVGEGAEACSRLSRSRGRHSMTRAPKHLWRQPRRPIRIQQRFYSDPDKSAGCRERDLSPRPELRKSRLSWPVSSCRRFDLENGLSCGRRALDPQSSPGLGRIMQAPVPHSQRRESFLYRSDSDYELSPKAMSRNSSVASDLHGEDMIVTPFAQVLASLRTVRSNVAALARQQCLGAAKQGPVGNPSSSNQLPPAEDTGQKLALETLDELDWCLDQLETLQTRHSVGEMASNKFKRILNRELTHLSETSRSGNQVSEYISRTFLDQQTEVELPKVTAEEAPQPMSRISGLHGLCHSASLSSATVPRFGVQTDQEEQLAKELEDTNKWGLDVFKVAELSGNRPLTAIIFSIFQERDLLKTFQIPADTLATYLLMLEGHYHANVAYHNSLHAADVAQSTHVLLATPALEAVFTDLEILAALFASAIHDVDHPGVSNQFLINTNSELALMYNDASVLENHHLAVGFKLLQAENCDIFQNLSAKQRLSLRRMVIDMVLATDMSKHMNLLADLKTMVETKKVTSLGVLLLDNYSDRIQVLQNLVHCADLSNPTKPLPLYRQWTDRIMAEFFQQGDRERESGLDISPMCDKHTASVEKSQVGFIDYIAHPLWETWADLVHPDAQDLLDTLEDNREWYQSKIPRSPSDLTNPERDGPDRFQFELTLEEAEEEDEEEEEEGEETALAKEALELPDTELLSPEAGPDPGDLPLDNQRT
Chain of 3',5'-cyclic-AMP phosphodiesterase 4B (Q07343 whole entry): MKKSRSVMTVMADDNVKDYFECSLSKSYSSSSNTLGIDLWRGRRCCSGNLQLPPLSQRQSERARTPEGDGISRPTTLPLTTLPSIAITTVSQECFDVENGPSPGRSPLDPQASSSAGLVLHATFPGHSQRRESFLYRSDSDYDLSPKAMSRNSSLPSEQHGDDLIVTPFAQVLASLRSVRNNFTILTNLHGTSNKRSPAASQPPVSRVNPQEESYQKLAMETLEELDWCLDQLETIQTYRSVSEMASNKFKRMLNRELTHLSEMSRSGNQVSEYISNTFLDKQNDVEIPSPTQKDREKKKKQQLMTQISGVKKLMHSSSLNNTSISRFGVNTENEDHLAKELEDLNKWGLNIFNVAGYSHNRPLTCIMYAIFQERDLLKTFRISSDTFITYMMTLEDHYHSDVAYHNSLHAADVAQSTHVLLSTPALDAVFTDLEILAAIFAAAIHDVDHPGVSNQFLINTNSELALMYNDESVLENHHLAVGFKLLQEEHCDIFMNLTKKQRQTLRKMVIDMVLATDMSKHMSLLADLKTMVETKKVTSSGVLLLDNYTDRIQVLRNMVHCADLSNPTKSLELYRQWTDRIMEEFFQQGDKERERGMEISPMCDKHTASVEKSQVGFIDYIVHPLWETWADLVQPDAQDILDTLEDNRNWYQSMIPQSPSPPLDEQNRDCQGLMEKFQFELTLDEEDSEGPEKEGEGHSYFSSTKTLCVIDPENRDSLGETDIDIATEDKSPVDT
Chain of Mitogen-activated protein kinase 14 (Homo sapiens) (Q16539 whole entry): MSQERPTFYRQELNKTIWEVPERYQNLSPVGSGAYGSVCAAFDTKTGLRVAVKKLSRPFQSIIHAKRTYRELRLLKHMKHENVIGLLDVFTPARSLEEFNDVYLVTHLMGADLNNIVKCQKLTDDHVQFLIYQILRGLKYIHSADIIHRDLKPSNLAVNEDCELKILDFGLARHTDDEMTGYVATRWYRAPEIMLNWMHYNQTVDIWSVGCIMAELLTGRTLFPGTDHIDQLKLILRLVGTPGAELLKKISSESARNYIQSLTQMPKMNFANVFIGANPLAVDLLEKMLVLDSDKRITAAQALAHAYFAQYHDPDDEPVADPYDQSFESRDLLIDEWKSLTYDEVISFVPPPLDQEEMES
Chain of Protein kinase C beta type (P05771 whole entry): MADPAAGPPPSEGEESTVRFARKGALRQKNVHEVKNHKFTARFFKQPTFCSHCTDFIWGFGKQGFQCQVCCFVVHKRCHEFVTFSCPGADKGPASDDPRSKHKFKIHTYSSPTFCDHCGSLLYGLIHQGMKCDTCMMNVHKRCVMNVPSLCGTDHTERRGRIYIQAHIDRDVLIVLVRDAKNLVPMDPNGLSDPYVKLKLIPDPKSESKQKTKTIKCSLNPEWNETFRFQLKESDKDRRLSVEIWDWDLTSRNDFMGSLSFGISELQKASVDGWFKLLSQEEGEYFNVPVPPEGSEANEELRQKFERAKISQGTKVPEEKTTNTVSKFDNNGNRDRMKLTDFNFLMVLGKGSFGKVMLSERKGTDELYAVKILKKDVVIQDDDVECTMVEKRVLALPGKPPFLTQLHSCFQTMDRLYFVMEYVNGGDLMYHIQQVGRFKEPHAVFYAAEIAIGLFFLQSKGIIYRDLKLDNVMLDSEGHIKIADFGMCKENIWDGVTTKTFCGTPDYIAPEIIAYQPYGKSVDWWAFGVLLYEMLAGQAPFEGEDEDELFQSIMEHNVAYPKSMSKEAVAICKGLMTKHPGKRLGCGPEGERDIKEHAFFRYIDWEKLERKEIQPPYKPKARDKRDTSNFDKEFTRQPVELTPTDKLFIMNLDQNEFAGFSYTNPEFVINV
Chain of Casein kinase I isoform alpha (Homo sapiens) (P48729 2-337 limits assumed): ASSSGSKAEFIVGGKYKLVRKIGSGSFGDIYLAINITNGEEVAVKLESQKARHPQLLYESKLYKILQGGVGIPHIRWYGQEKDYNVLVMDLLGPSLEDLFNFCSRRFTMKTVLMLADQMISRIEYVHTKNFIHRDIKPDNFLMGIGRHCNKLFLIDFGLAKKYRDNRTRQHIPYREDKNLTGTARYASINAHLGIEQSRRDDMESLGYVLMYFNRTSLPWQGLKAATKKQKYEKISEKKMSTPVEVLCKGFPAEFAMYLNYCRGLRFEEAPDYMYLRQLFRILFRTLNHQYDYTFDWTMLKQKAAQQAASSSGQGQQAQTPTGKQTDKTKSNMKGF
Chain of Mitogen-activated protein kinase kinase kinase 7 (O43318 whole entry): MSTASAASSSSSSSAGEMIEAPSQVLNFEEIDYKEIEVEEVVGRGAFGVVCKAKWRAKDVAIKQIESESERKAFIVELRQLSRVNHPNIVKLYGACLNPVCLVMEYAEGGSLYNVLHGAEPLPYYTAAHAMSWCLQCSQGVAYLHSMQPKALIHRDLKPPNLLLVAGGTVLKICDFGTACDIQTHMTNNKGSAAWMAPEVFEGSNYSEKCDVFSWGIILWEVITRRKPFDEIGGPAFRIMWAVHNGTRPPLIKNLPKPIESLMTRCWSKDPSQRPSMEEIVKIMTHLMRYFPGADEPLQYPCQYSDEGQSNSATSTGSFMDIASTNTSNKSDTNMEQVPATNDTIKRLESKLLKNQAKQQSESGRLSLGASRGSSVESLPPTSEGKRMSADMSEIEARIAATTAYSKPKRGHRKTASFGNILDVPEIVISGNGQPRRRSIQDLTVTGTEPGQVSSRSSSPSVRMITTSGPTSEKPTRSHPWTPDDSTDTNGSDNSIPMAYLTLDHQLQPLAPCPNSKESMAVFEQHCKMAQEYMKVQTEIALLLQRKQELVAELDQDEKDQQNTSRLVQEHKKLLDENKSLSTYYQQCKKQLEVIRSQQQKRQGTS
Chain of Cyclin-dependent kinase 18 (Homo sapiens) (Q07002 whole entry): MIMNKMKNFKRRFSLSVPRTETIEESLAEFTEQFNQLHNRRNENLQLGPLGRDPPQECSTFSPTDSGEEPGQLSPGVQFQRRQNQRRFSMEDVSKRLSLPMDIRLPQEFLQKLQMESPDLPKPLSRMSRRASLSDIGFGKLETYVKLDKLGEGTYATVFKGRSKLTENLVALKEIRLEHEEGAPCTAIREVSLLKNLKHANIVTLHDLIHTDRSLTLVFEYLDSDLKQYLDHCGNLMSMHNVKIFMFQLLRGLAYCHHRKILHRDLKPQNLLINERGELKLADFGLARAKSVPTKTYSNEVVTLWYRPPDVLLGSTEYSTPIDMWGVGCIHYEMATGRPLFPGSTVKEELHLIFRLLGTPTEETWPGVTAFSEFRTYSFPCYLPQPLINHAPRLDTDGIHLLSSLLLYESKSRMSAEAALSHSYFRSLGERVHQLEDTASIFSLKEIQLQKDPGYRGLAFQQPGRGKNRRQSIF
Chain of Mitogen-activated protein kinase 3 (P27361 whole entry): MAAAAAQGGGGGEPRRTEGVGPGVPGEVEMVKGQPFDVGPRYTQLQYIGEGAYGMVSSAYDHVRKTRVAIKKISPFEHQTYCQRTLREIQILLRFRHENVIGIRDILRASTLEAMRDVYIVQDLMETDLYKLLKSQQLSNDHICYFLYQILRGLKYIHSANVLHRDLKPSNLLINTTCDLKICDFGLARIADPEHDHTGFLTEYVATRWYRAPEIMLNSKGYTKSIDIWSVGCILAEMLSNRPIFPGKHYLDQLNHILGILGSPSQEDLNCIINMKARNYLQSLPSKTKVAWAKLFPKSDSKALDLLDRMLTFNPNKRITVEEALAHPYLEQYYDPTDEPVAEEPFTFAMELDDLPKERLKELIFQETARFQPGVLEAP

half-life [1]: 3.4 h
half-life [2]: 3.3 h
half-life [3]: 3.2 h
AUCt [4]: 0.95 µM·h
AUCt [5]: 0.42 µM·h
AUCt [6]: 93.4 µM·h
Tmax [7]: 2.9 h
fraction unbound at 6 h, 10 µM [8]: 0.631
fraction unbound at 6 h, 30 µM [9]: 0.781
AUC [10]: 2.24 µM·h
Cmax [11]: 200 nM
Tmax [12]: 1.5 h
fraction unbound at 6 h, 30 µM [13]: 0.754
fraction unbound at 6 h, 1 µM [14]: 0.9
inhibition [15]: 35%
AUC [16]: 2.24 µM·h
Tmax [17]: 2.3 h
AUC [18]: 3.05 µM·h
inhibition [19]: 94%
inhibition (Homo sapiens [20]): 62%
fraction unbound at 6 h, 10 µM [21]: 0.611
AUCt [22]: 3.4 µM·h
IC50 [23]: 1.9 µM
half-life [24]: 2.7 h
Cmax [25]: 590 nM
Cmax [26]: 314 nM
fraction unbound at 6 h, 10 µM [27]: 0.806
AUC [28]: 1.04 µM·h
AUCt [29]: 0.31 µM·h
Tmax [30]: 2.2 h
IC50 [31]: 6.4 µM
inhibition [32]: 54%
fraction unbound at 6 h, 1 µM [33]: 0.667
inhibition [34]: 97%
fraction unbound at 6 h, 30 µM [35]: 0.583
fraction unbound at 6 h, 1 µM [36]: 0.863
AUC [37]: 3.58 µM·h
inhibition (Homo sapiens [38]): 32%
Compound: CC(=O)Nc1cc(-c2c(-c3ccc(F)cc3)nc([S+](C)[O-])n2C)ccn1 (stereo not given)

Compound: C[S+]([O-])c1ccc(-c2nc(-c3ccncc3)c(-c3ccc(F)cc3)[nH]2)cc1 (stereo not given) [SB-203580]
IC50 [39]: > 50 µM
IC50 [40]: > 100 µM

clearance [41]: 2.92 mL/min/kg
clearance [42]: 4.86 mL/min/kg
half-life [43]: 4.48 h
Compound: O=C(CO)N1CCC(c2[nH]nc(-c3ccc(Cl)cc3)c2-c2ccncn2)CC1 [SD-0006]

IC50 [44]: > 10 µM
bioavailability [45]: 21.1%
IC50 [46]: > 10 µM
Compound: CCc1nc(-c2cccc(C)c2)c(-c2ccnc(NC(=O)c3ccccc3)c2)s1 [TAK-715]

IC50 [23]: 3.5 µM
inhibition [47]: 30%
IC50 [31]: > 10 µM
inhibition [48]: 30%
Compound: Cn1c([S+](C)[O-])nc(-c2ccc(F)cc2)c1-c1ccnc(N)c1 (stereo not given)
